# Measured values from article PMC9343605, “Structural insights into ligand recognition and selectivity of somatostatin receptors” (Cell Research, 2022).
# What was measured:
# [1] = test system: growth hormone and glucagon releases; conditions: full agonist; cited from earlier work
# Description: (§1) Along with increased knowledge of the pharmacological effects of these receptors, medical application of SST and its analogs has expanded. A considerable amount of effort has been made to develop new therapeutics for oncology of SSTRs. […] It was found recently that radiolabeled SSTR antagonists produced superi ...
# SSTR2 [2] = target: SSTR2 (Homo sapiens, UniProt P30874, F275A); experiment: cAMP accumulation assay (agonist-induced inhibition of forskolin-stimulated cAMP), SSTR2, HEK293F; format: cell-based; design: expressed in transfected cells; host or cells: HEK293F; conditions: SSTR2 mutant F275^6.54A; mean ± SEM;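 note: transiently transfected cells exposed to 2 µM forskolin and a ligand concentration series for 40 min at room temperature in IBMX-containing HBSS, then cAMP quantified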
# Sequence of SSTR2 (Homo sapiens, UniProt P30874, F275A) (P30874 whole entry F275A): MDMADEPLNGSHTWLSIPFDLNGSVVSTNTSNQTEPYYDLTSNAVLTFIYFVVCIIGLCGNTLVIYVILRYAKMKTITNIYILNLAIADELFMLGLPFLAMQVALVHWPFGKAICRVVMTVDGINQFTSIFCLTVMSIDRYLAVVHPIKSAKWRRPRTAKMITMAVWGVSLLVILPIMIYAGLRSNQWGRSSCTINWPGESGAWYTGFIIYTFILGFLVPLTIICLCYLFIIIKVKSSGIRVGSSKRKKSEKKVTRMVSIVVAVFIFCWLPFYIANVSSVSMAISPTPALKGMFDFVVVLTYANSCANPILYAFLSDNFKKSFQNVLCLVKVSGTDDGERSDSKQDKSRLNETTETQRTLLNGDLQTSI
# SSTR2 [3] = target: SSTR2 (Homo sapiens, UniProt P30874); experiment: as above; format: cell-based; design: expressed in transfected cells; host or cells: HEK293F; conditions: WT SSTR2
# Sequence of SSTR2 (Homo sapiens, UniProt P30874) (P30874 whole entry): as the sequence (P30874 whole entry F275A) above, with A275F counted along it
# SSTR2 [4] = target: SSTR2 (Homo sapiens, UniProt P30874, F272A); experiment: as above; format: cell-based; design: expressed in transfected cells; host or cells: HEK293F; conditions: SSTR2 mutant F272^6.51A; mean ± SEM
# Sequence of SSTR2 (Homo sapiens, UniProt P30874, F272A) (P30874 whole entry F272A): as the sequence (P30874 whole entry F275A) above, with F272A, A275F counted along it
# SSTR2 [5] = target: SSTR2 (Homo sapiens, UniProt P30874, D122A); experiment: as above; format: cell-based; design: expressed in transfected cells; host or cells: HEK293F; conditions: SSTR2 mutant D122^3.32A; mean ± SEM
# Sequence of SSTR2 (Homo sapiens, UniProt P30874, D122A) (P30874 whole entry D122A): as the sequence (P30874 whole entry F275A) above, with D122A, A275F counted along it
# SSTR2 [6] = target: SSTR2 (Homo sapiens, UniProt P30874, T194A); experiment: as above; format: cell-based; design: expressed in transfected cells; host or cells: HEK293F; conditions: SSTR2 mutant T194^ECL2A; mean ± SEM
# Sequence of SSTR2 (Homo sapiens, UniProt P30874, T194A) (P30874 whole entry T194A): as the sequence (P30874 whole entry F275A) above, with T194A, A275F counted along it
# SSTR2 [7] = target: SSTR2 (Homo sapiens, UniProt P30874, F294A); experiment: as above; format: cell-based; design: expressed in transfected cells; host or cells: HEK293F; conditions: SSTR2 mutant F294^7.35A; mean ± SEM
# Sequence of SSTR2 (Homo sapiens, UniProt P30874, F294A) (P30874 whole entry F294A): as the sequence (P30874 whole entry F275A) above, with A275F, F294A counted along it
# SSTR2 [8] = target: SSTR2 (Homo sapiens, UniProt P30874, T212A); experiment: as above; format: cell-based; design: expressed in transfected cells; host or cells: HEK293F; conditions: SSTR2 mutant T212^5.42A; mean ± SEM
# Sequence of SSTR2 (Homo sapiens, UniProt P30874, T212A) (P30874 whole entry T212A): as the sequence (P30874 whole entry F275A) above, with T212A, A275F counted along it
# SSTR2 [9] = target: SSTR2 (Homo sapiens, UniProt P30874, Y205A); experiment: as above; format: cell-based; design: expressed in transfected cells; host or cells: HEK293F; conditions: SSTR2 mutant Y205^5.35A
# Sequence of SSTR2 (Homo sapiens, UniProt P30874, Y205A) (P30874 whole entry Y205A): as the sequence (P30874 whole entry F275A) above, with Y205A, A275F counted along it
# SSTR2 [10] = target: SSTR2 (Homo sapiens, UniProt P30874, Q102A); experiment: as above; format: cell-based; design: expressed in transfected cells; host or cells: HEK293F; conditions: SSTR2 mutant Q102^2.63A; mean ± SEM
# Sequence of SSTR2 (Homo sapiens, UniProt P30874, Q102A) (P30874 whole entry Q102A): as the sequence (P30874 whole entry F275A) above, with Q102A, A275F counted along it
# SSTR2 [11] = target: SSTR2 (Homo sapiens, UniProt P30874, Y302A); experiment: as above; format: cell-based; design: expressed in transfected cells; host or cells: HEK293F; conditions: SSTR2 mutant Y302^7.43A; mean ± SEM
# Sequence of SSTR2 (Homo sapiens, UniProt P30874, Y302A) (P30874 whole entry Y302A): as the sequence (P30874 whole entry F275A) above, with A275F, Y302A counted along it
# SSTR2 [12] = conditions: cited from earlier work
# SSTR4 [13] = conditions: SSTR4 selective agonist; cited from earlier work
# Description: as §1
# SSTR4 [14] = target: T1, SSTR4 (Homo sapiens, UniProt P31391, F211A); experiment: cAMP accumulation assay (agonist-induced inhibition of forskolin-stimulated cAMP), SSTR4, HEK293F; format: cell-based; conditions: SSTR4 mutant F211^5.38A; mean ± SEM;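 note: transiently transfected cells incubated 40 min at room temperature with 4 µM forskolin and graded ligand, cAMP read by LANCE Ultra TR-FRET kit, values normalized to WT receptor per ligand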
# T1 construct: expressed in transfected cells; host or cells: HEK293F
# T1 sequence (P31391 whole entry F211A): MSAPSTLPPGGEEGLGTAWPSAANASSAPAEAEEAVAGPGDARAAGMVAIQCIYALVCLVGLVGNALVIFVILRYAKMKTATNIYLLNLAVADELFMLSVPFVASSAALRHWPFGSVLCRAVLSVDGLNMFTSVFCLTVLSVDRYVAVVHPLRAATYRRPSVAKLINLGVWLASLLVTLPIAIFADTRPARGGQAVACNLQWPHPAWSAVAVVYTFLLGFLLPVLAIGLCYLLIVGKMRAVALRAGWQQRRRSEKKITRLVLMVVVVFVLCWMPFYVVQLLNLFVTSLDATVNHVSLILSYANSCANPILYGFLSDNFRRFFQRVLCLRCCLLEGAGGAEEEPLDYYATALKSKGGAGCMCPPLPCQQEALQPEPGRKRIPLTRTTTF
# Description: (§2) HEK293F cells were transiently transfected with WT or mutant SSTR2/SSTR4 using transfection reagent (PEI MAX 2000, Polysciences) and incubated at 37 °C in 5% CO2. Forty-eight hours after transfection, cells were centrifuged and resuspended in stimulation buffer (Hanks’ balanced salt solution (HBSS) supplemented with 5 mM HEPES, 0.5 mM IBMX and 0.1% (w/v) bovine serum albumin (BSA), pH 7.4) to a density of 200,000 cells/mL and added to 384-well white plates (PerkinElmer, 1000 cells/well). cAMP accumulation was measured by a LANCE Ultra cAMP kit (PerkinElmer) according to the manufacturer’s instructions. In brief, transfected cells were incubated for 40 min in stimulation buffer with 2.5 μL forskolin (SSTR2: 2 μM; SSTR4: 4 μM) and gradient concentration of ligand at RT. The reactions were stopped by addition of lysis buffer containing 5 μL Eu-cAMP tracer and 5 μL ULight-anti-cAMP. Plates were then incubated for 60 min at RT and time-resolved FRET signals were measured at 620 nm and 665 nm by an EnVision multilabel plate reader (PerkinElmer). Data were analyzed in GraphPad PRISM 8 and all values were normalized to the WT for each ligand. All outcomes were repeated at least three times.
# (§3) aMutants represent that mutations were introduced separately into the WT receptors and
# (§4) transiently expressed in HEK 293F cells.
# (§5) bThe EC50 ratio was shown as EC50(mutant)/EC50(WT), indicating the shift between the WT
# (§6) and mutant curves, reflecting the effect of the mutations on receptor signaling.
# (§7) cData are shown as mean ± S.E.M. from at least three independent experiments
# (§8) performed in technical triplicate. One-way ANOVA was performed followed by
# (§9) Dunnett’s post-test and compared with WT. The P value was defined as: *P<0.05;
# (§10) d The span is defined as the window between the maximal agonists response (Emax) and
# (§11) e Sample size; the number of independent experiments performed in technical triplicate.
# (§12) f Receptor expression level of HEK 293F cells was determined independently by flow
# (§13) cytometry with anti-FLAG antibody and shown as per cent compared to the WT.
# SSTR4 [15] = target: T2, SSTR4 (Homo sapiens, UniProt P31391, L123A); experiment: as above; format: cell-based; conditions: SSTR4 mutant L123^3.29A; mean ± SEM
# T2 construct: expressed in transfected cells; host or cells: HEK293F
# T2 sequence (P31391 whole entry L123A): as the sequence (P31391 whole entry F211A) above, with L123A, A211F counted along it
# Description: as §2, §3, §4, §5, §6, §7, §8, §9, §10, §11, §12, §13
# SSTR4 [16] = target: T3, SSTR4 (Homo sapiens, UniProt P31391, N293A); experiment: as above; format: cell-based; conditions: SSTR4 mutant N293^7.35A; mean ± SEM
# T3 construct: expressed in transfected cells; host or cells: HEK293F
# T3 sequence (P31391 whole entry N293A): as the sequence (P31391 whole entry F211A) above, with A211F, N293A counted along it
# Description: as §2, §3, §4, §5, §6, §7, §8, §9, §10, §11, §12, §13
# SSTR4 [17] = target: T4, SSTR4 (Homo sapiens, UniProt P31391, V103L); experiment: as above; format: cell-based; conditions: SSTR4 mutant V103^2.60L; mean ± SEM
# T4 construct: expressed in transfected cells; host or cells: HEK293F
# T4 sequence (P31391 whole entry V103L): as the sequence (P31391 whole entry F211A) above, with V103L, A211F counted along it
# Description: as §2, §3, §4, §5, §6, §7, §8, §9, §10, §11, §12, §13
# SSTR4 [18] = target: T5, SSTR4 (Homo sapiens, UniProt P31391, N282A); experiment: as above; format: cell-based; conditions: SSTR4 mutant N282^6.58A; mean ± SEM
# T5 construct: expressed in transfected cells; host or cells: HEK293F
# T5 sequence (P31391 whole entry N282A): as the sequence (P31391 whole entry F211A) above, with A211F, N282A counted along it
# Description: as §2, §3, §4, §5, §6, §7, §8, §9, §10, §11, §12, §13
# SSTR4 [19] = target: T6, SSTR4 (Homo sapiens, UniProt P31391, L297A); experiment: as above; format: cell-based; conditions: SSTR4 mutant L297^7.39A; mean ± SEM
# T6 construct: expressed in transfected cells; host or cells: HEK293F
# T6 sequence (P31391 whole entry L297A): as the sequence (P31391 whole entry F211A) above, with A211F, L297A counted along it
# Description: as §2, §3, §4, §5, §6, §7, §8, §9, §10, §11, §12, §13
# SSTR4 [20] = experiment: as above; format: cell-based, human; conditions: for EC50 ratio: EC50(mutant)/EC50(WT)
# Description: as §2, §3, §4, §5, §6, §7, §8, §9, §10, §11, §12, §13
smiles,measurement,setting,value
"C[C@@H](c1c[nH]c2ccccc12)[C@@H](NC(=O)N1CCC(n2c(=O)[nH]c3ccccc32)CC1)C(=O)N[C@@H](CCCCN)C(=O)OC(C)(C)C [L-054,522]",effect on growth hormone and glucagon releases,[1],inhibitory effect on growth hormone and glucagon releases
same,Span,SSTR2 [2],154±10 % of WT
same,pEC50 ± SEM,SSTR2 [2],8.93±0.15
same,EC50 ratio,SSTR2 [3]; EC50(mutant)/EC50(WT),1
same,pEC50 ± SEM,"SSTR2 [3]; HEK293F, mean ± SEM, at least three independent experiments",9.67±0.08
same,Span,"SSTR2 [3]; window between Emax and vehicle, mean ± SEM",100±4 % of WT
same,Span,SSTR2 [4],215±18 % of WT
same,pEC50 ± SEM,SSTR2 [4],7.85±0.19
same,Span,SSTR2 [5],41±6 % of WT
same,pEC50 ± SEM,SSTR2 [5],7.37±0.27
same,Span,SSTR2 [6],104±10 % of WT
same,pEC50 ± SEM,SSTR2 [6],9.26±0.23
same,Span,SSTR2 [7],95±8 % of WT
same,pEC50 ± SEM,SSTR2 [7],8.36±0.20
same,Span,SSTR2 [8],108±5 % of WT
same,pEC50 ± SEM,SSTR2 [8],8.94±0.12
same,EC50,SSTR2 [9],0.01 nM
same,Span,SSTR2 [9]; mean ± SEM,143±18 % of WT
same,Span,SSTR2 [10],79±6 % of WT
same,pEC50 ± SEM,SSTR2 [10],9.46±0.18
same,Span,SSTR2 [11],96±8 % of WT
same,pEC50 ± SEM,SSTR2 [11],8.67±0.19
same,selectivity for SSTR2,SSTR2 [12],at least 3000 fold
Cc1ccc(S(=O)(=O)N[C@@H](CCN)C(=O)N[C@@H](Cc2ccccc2)C(N)=O)c2ccccc12 [J-2156],pain relief,SSTR4 [13],mediates pain relief
same,Span,SSTR4 [14],94±7 % of WT
same,pEC50 ± SEM,SSTR4 [14],8.20±0.17
same,Span,SSTR4 [15],61±6 % of WT
same,pEC50 ± SEM,SSTR4 [15],9.49±0.23
same,Span,SSTR4 [16],87±6 % of WT
same,pEC50 ± SEM,SSTR4 [16],9.30±0.17
same,Span,SSTR4 [17],40±4 % of WT
same,pEC50 ± SEM,SSTR4 [17],9.00±0.25
same,Span,SSTR4 [18],62±5 % of WT
same,pEC50 ± SEM,SSTR4 [18],9.99±0.21
same,Span,SSTR4 [19],111 ± 8 % of WT
same,pEC50 ± SEM,SSTR4 [19],7.59±0.16
same,EC50 ratio,SSTR4 [20]; Construct 4 SSTR4,0.2
same,effect of alanine mutation on agonist potency,SSTR4 [20]; SSTR4 F275^6.51 and Y276^6.52,significant reduction in agonist potency
same,EC50 ratio,SSTR4 [20]; SSTR4 mutant F211^5.38A,33
same,EC50 ratio,SSTR4 [20]; SSTR4 mutant L123^3.29A,2
same,EC50 ratio,SSTR4 [20]; SSTR4 mutant L297^7.39A,137
same,EC50 ratio,SSTR4 [20]; SSTR4 mutant M130^3.36A,4
same,EC50 ratio,SSTR4 [20]; SSTR4 mutant N199^ECL2A,0.3
same,EC50 ratio,SSTR4 [20]; SSTR4 mutant N293^7.35A,3
same,EC50 ratio,SSTR4 [20]; SSTR4 mutant Q279^6.55A,1
same,EC50 ratio,SSTR4 [20]; SSTR4 mutant T215^5.42A,1
same,EC50 ratio,SSTR4 [20]; SSTR4 mutant V103^2.60L,5
same,decrease of potency,SSTR4 [20]; SSTR4 mutant V103^2.60 to leucine,~ 5 fold
same,EC50 ratio,SSTR4 [20]; SSTR4 mutant Y276^6.52A,1016
same,EC50 ratio,SSTR4 [20]; SSTR4 mutant Y301^7.43A,497
same,EC50 ratio,SSTR4 [20]; WT SSTR4,1
